Patent publication US20080146499A1, “Identification of the Precise Amino Acid Sequence of the Epitope Recognized by the Potent Neutralizing Human Anti-Hiv-1 Monoclonal Antibody Igg1b12” (priority 2005, published 2008)
No end group written: not given here. *: point of attachment. Biotin = O=C1N[C@H]2[C@H](CS[C@H]2CCCCC(=O)*)N1

What was measured:
[1] = tested on: IgG1 b12
Procedure: Antigen capture ELISA was carried out by first coating 96 well plates (NUNC, Mississauga, ON) with 2.5 μg/ml IgG1 b12 at 4° C. overnight. Plates were washed with phosphate buffered saline (PBS) 0.05% Tween 20 and blocked with PBS containing 0.17% bovine serum albumin. Plates were washed and incubated at 4° C. overnight with serially diluted biotinylated peptides (Nterm and scrambled peptides) corresponding to the amino terminal region of gp120 N-term (biotin-[sequence]), and a scrambled peptide control (biotin-[sequence]) (United Biochemical Research, Inc., Seattle, Wash.). Plates were washed and incubated at 37° C. for 45 minutes with streptavidin alkaline phosphatase (Jackson ImmunoResearch Laboratories, Inc. West Grove, Pa.) then washed again and incubated with MgCl2 diethanolamine substrate buffer plus alkaline phosphatase yellow (pNPP) (Sigma, Oakville, ON.) at room temperature. Plates were read on a Spectramax Plus (Molecular Devices, Sunnyvale, Calif.) at 405 nm.

[2] = tested on: N terminal peptide; settings: i.p. immunizations days 1, 15, 30, 45, 60; sera day 67; compared to control mice; FIG. 13 B
Procedure: (§1) For immunogenicity studies, 4 groups of 4 BALB/c mice (16 total) were immunized intraperitoneally (i.p.) 5 times over 2 months. The first group of mice received PBS plus Freund's adjuvant in each immunization, and the second group received 10-50 kg gp120. The third and fourth groups received 10 μg biotinylated peptide (group 3 received N-term, group 4, scrambled) linked to avidin.
(§2) ELISAs to detect Ab responses in mice were carried out by coating 96 well plates with 2.5 μg/ml gp120 or 5 μg/ml biotinylated peptide overnight at 4° C. Blood was obtained by venous tail puncture, serum was obtained by collecting the supernatant of blood that had been incubated at 4° C. for one hour and centrifuged in an Eppendorf microcentrifuge (Centrifuge 5417C, Brinkmann Instruments, Ltd. Mississauga, ON) twice for 30 minutes at maximum speed. Serum was diluted at 1/50 down in doubling dilutions and incubated on plates for 2 hours at 37° C., washed, and HRP-goat anti-mouse secondary antibody (Southern Biotechnology Associates, Inc., Birmingham, Ala.) was added. ABTS substrate (Roche Diagnostics Canada, Laval, PQ) was used for detection. Plates were read at 405 nm on the Spectramax Plus.

[3] = tested on: gp120
Procedure: as §1, §2

[4] = tested on: IgG1b12 antibody; test: Synthetic gp120 peptide binding to bead-linked IgG1b12, measured by mass spectrometry; design: species or system human; settings: synthetic peptides as starting material; FIG. 5
Procedure: The antibody was linked to cyanogen-bromide activated sepharose beads (Sigma-Aldrich, Oakville, Ontario). Epitope excision was performed to include potential conformational epitopes. The antibody-bead mixture was incubated with either MN or IIIB HIV-1 gp120 (ImmunoDiagnostics, Inc. Woburn, Mass.) or synthetic HIV-1 gp120 peptides (United Biochemical Research, Inc, Seattle, Wash., USA) for 2 hours under physiological conditions. After several washes, trypsin (Calbiochem-Novabiochem Corporation, San Diego, Calif., USA), or Glu-C (Roche Diagnostics Canada. Laval, Quebec) enzyme digests were performed. Unbound, digested material was washed away. Antibody-bound fragments protected from digestion were analyzed by mass spectrometry. Bead+antibody+peptide complex were spotted on a gold plate along with DHB matrix (Sigma-Aldrich, Oakville, Ontario) (3,4). The sample was analyzed on the prototypic QqTOF mass spectrometer by matrix-assisted laser desorption/ionization.
Epitope mapping experiments were performed using synthetic peptides. One peptide, the “N-term” (amino terminus) peptide was tested for it's binding to IgG1b12. The N-term sequence is as follows: [sequence]. A second peptide covered the CD4 binding site, including the isoleucine (I) residue.

[5] = target: biotinylated N-term peptide (biotin-…) (HIV-1); test: antigen capture ELISA, plates coated with IgG1 b12, biotinylated peptide detected with streptavidin alkaline phosphatase; reference: scrambled peptide

Q: What does the source list for “Biotin-LWVTVYYGVPVWKEATTTLFCASDAK [Nterm peptide]”?
A: binding to IgG1 b12 relative to the scrambled peptide ([1]; antigen capture ELISA): 4 times; peptide binding to IgG1 b12 ([1]; plates coated with 2.5 μg/ml IgG1 b12, serially diluted biotinylated peptide, FIG. 11): bound IgG1 b12, and this binding was dose dependant; serum antibodies binding N-terminal peptide [2]: contains antibodies capable of binding both whole gp120 and N-terminal peptide; immunogenicity in the mouse model ([3]; BALB/c mice, biotinylated peptide linked to avidin, i.p.): immunogenic; serum antibodies binding whole gp120 ([3]; i.p. immunizations days 1, 15, 30, 45, 60, sera day 67, compared to control mice, FIG. 13 A): contains antibodies capable of binding both whole gp120 and N-terminal peptide

Q: With “KLWVTVYYGVPVWKEATTTLFCASDAKAYDTE [amino terminus]” as the substance, how does the “recognition of synthetic peptide by IgG1b12” value [4] read?
A: specifically recognizes

Q: IgG1b12 human monoclonal antibody was tested. Which fold binding against the scrambled peptide [5] did it give?
A: 4 times
